One series has as its target T1, MMP-1 (Homo sapiens, UniProt P03956).
T1 sequence (P03956 100-469): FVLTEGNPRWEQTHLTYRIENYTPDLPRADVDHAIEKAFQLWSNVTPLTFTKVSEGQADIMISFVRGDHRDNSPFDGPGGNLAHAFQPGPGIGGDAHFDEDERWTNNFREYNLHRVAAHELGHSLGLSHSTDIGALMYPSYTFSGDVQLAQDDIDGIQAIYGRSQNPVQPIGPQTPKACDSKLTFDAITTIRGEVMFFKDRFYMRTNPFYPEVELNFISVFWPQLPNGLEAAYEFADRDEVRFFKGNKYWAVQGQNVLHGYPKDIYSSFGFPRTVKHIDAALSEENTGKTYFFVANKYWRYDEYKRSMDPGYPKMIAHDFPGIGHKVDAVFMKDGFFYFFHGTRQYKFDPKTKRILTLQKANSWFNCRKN
Briefly: MMP-1 colorimetric assay kit (Biomol AK-404). Format: biochemical. How it is done:
(§1) Compounds were screened using the following commercially available Biomol assay kits: • MMP-1 colorimetric assay kit—Catalogue number AK-404, • MMP-2 colorimetric assay kit—Catalogue number AK-408, • MMP-8 calorimetric assay kit—Catalogue number AK-414, • MMP-9 calorimetric assay kit—Catalogue number AK-410, • MMP-12 colorimetric assay kit—Catalogue number AK-402, Which are available from Affiniti Research Products Ltd. (Palatine House, Matford Court, Exeter, EX2 8NL, UK).
(§2) Inhibitors were provided in powdered form, and stored at 4° C. For each inhibitor a 1 mM stock solution in DMSO was prepared, dispensed into 20 μl aliquots and these aliquots stored at −20° C. The stock solution was diluted to give 8 inhibitor concentrations (recommended: 50 μM, 5 μM, 500 nM, 50 nM, 5 nM, 500 pM, 50 pM and 5 pM). Dilutions were made in the kit assay buffer. A five-fold dilution of the inhibitor stocks is made on addition to the assay wells, therefore final concentration range was from 10 μM to 1 pM.
(§3) Details are provided with the commercial kit, but can be summarised as follows: • Prepare test compound dilutions as above, • Add assay buffer to plate, • Add test compounds to plate • Prepare standard kit inhibitor NNGH (see kit for dilution factor) • Add NNGH to control inhibitor wells • Prepare MMP enzyme (see kit for dilution factor) • Add MMP to plate • Incubate plate at 37° C. for ˜15 min • Prepare thiopeptolide substrate (see kit for dilution factor) • Add substrate to plate • Count every 2 min for 1 hr, 37° C., 414 nm on a Labsystems iEMS plate reader (for MMP-1 count every 30 seconds for 20 minutes).

For the next series, the target named is T2, MMP-2 (Homo sapiens, UniProt P08253).
T2 sequence (P08253 110-660): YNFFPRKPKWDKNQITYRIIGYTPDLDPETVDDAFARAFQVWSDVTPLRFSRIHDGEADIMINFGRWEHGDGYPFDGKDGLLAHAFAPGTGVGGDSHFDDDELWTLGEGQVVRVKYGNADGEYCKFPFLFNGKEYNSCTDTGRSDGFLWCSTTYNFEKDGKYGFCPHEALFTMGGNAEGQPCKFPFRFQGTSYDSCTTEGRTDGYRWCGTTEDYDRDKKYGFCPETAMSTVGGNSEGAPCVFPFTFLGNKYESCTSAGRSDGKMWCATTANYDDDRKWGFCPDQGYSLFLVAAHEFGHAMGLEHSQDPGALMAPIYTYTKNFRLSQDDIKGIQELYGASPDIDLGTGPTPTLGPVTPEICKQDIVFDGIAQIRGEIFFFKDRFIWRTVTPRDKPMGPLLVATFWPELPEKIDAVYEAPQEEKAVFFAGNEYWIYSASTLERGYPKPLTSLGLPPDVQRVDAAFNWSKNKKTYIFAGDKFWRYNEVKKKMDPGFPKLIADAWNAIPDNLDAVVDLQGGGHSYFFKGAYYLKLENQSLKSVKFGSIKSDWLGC
Briefly: MMP-2 colorimetric assay kit (Biomol AK-408). Type of series: biochemical. How it is done:
as §1, §2, §3

Another series deals with MMP-8 (Homo sapiens, UniProt P22894). Briefly: MMP-8 colorimetric assay kit (Biomol AK-414). Format: biochemical. How it is done:
as §1, §2, §3

The next series concerns the target MMP-9 (Homo sapiens, UniProt P14780). Briefly: MMP-9 colorimetric assay kit (Biomol AK-410). Format: biochemical. How it is done: as §1, §2, §3
A short description of series [1]: In vitro rat plasma stability. Type of series: in vitro ADME. How it is done: Plasma and in vivo stability studies were performed with Compound 24A to determine the stability and metabolism of the compound.
Series [2] can be described thus: In vivo stability and metabolism in the rat. An excerpt: Only plasma and bile samples could be analysed due to insufficient radioactivity within the urine.
For series [3], the system named is Lewis lung carcinoma (LLC) tumour. Briefly: Biodistribution in LLC tumour model in vivo. Also on record: species or system C57BL/6 mice. How it is done: 1×10^6 Lewis lung carcinoma (LLC) cells are injected subcutaneously into right inner thigh of C57BL/6 mice. Tumours were allowed to grow for 15 days prior to biodistribution being carried out.
Biodistribution studies were performed in the LLC tumour model.
Biodistribution was performed in the LLC tumour model of Example 23 with Compounds 46B and 48B.

Series [4] relates to ApoE −/− mice, carotid artery. Briefly: Biodistribution in ApoE ligation model of atherosclerosis (ligated and sham). Type of series: in vivo. From the text:
ApoE −/− mice are transgenic knock-out mice, which lack the ApoE gene, and are therefore unable to regulate their plasma cholesterol levels. As a consequence ApoE mice develop atherosclerotic lesions, a process which is accelerated with feeding of high fat diet. Further acceleration of lesion development can be achieved by ligating the carotid artery, resulting in advanced lesion formation within 4 weeks of surgery and high fat diet feeding.
Two controls have been used for these experiments: (1) ApoE sham animals in which the mice undergo the same surgical intervention but the sture is only passed beneath the carotid and then removed and, (2) C57BL/6 ligtaed animals which undergo the same surgical ligation and high fat feeding as the ApoE ligated mice. Literature reports have stated that these animals do have some level of tissue remodelling, but with lower active MMP levels [Ivan et al, Circulation, 105, 2686-2691 (2002)].

The test system of series [5] is MDA-MB-231 tumour (human breast carcinoma xenograft). Briefly: Imaging in MDA-MB-231 tumour model in vivo. How it is done: Imaging was performed with Compound 24A in the MDA-MB-231 tumour model (a human breast carcinoma xenograft model). […] 1999 May;17(3):231-8; • Lee et al, Eur. J Cancer, 2001; 37:106-113. • Weber et al Int J Oncol.
The target in a further series is MMP-12 (Homo sapiens, UniProt P39900). Briefly: MMP-12 colorimetric assay kit (Biomol AK-402). Format: biochemical. How it is done:
as §1, §2, §3

Where [6] appears, read: ApoE Ligated, 5 min post injection.
Setting [7] is: ApoE Ligated, 60 min post injection.
[8] abbreviates: ApoE Sham, 60 min post injection.

Numbered stars: 1 amine (or outer) side, 2 acyl side, 3 side chain; on linkers, the order of the positions; unused ones are H or OH. Square brackets hold non-standard residues; d marks the D form. Peptide text beside a SMILES is read from it. * marks the point of attachment. Tyr(3-I) = N[C@@H](Cc1ccc(O)c(I)c1)C(=O)O; X2 = O=C(NO)C1(N(CCC(=O)[*:2])[*:1])CCCC1; X1 = O=S(=O)(c1ccc(Oc2ccc(F)cc2)cc1)*

This is an account of results in patent US20070104644A1, “Inhibitor imaging agents” (priority 2003, published 2007).

Chain of MMP-12 (P39900 106-470): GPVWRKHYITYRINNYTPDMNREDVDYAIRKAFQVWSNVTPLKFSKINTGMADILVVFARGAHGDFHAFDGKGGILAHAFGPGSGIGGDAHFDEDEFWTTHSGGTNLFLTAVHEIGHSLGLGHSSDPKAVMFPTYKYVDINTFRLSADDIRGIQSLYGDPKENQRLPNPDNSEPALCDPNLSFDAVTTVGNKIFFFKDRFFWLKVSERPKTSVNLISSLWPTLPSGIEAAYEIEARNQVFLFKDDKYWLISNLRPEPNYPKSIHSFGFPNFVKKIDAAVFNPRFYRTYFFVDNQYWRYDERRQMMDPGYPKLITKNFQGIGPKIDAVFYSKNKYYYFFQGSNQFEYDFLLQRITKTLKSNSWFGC
Chain of MMP-8 (P22894 101-467): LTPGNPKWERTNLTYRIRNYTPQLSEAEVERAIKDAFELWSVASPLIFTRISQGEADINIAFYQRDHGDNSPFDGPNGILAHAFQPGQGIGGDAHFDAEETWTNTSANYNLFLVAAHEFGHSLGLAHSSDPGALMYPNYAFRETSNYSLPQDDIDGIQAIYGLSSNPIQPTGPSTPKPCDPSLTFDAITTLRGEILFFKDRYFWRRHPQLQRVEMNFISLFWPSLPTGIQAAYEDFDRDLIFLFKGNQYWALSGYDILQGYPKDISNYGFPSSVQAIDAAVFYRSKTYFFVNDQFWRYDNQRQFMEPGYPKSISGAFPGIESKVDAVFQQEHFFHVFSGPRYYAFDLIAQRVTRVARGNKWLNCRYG
Chain of MMP-9 (P14780 94-707): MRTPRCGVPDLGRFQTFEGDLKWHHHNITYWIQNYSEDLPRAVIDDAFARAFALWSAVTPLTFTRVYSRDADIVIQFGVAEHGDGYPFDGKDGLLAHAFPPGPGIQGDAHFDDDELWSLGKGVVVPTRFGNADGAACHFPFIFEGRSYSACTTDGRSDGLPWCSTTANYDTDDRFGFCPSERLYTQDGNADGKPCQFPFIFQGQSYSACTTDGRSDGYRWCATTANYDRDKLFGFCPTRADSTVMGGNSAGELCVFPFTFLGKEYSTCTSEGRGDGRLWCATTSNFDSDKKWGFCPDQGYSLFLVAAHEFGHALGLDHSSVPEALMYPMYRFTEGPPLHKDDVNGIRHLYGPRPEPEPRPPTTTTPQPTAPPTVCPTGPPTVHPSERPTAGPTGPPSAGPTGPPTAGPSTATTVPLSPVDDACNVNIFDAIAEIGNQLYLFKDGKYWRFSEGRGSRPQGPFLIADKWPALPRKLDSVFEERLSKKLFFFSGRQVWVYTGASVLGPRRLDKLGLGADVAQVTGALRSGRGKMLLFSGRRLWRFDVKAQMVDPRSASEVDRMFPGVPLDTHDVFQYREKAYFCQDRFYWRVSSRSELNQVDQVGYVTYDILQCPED

With `NC(=O)[C@H](Cc1ccc(O)c(I)c1)NC(=O)[C@H](CCC(=O)O)NC(=O)[C@H](CCC(=O)O)NC(=O)[C@H](CCC(=O)O)NC(=O)[C@H](CCC(=O)O)NC(=O)[C@H](CCC(=O)O)NC(=O)CCN(C1(C(=O)NO)CCCC1)S(=O)(=O)c1ccc(Oc2ccc(F)cc2)cc1` [Compound 21] (X1-[X2]EEEEE[Tyr(3-I)]-NH2), the inhibition constant (Ki) was 195 nM at MMP-1, 1.15 nM at MMP-2, 0.87 nM on MMP-8 and 0.82 nM on MMP-9.

In the case of `O=C(CCN(C1(C(=O)NO)CCCC1)S(=O)(=O)c1ccc(Oc2ccc(F)cc2)cc1)NCCc1ccc(O)c([123I])c1` [Compound 24A], the “In vitro rat plasma stability” value in series [1] (2 hours, 37° C.) is reported as “good stability”. Besides, the “RCP of parent compound” value in series [1] (start of incubation at 37° C.) worked out at 93%. Further, the “RCP of parent compound” value in series [1] (through 2 hours incubation at 37° C.) came to 80%. For the same compound, in series [2] (in vivo), the “Metabolites detected in bile samples” value is listed as 4 and the “Metabolites detected in plasma samples” value was “One metabolite”. Further, the “Free iodide in plasma samples” value in series [2] (in vivo, through time) was “increasing amount of free iodide”. Besides, the “In vivo stability and metabolism” value in series [2] (through time in vivo) is “slight instability and metabolism”. In series [3], the “Background tissue uptake” value is recorded as “low background tissue uptake”; the “Blood clearance / retention” value is reported as “cleared very rapidly from the blood”; the “Route of excretion” value is listed as “primarily excreted through the hepatobiliary system (HBS)”; the “Tumour uptake and retention” value was “Some retention was seen within tumour tissue”. Further, in series [3] (5 min post injection), the “% ID Urinary (urinary excretion), mean” value is on record as 7.17 % ID; the “% ID/g Tumour, mean” value is 0.6 % ID/g; the “Tumour/Blood, mean” value came to 0.32; the “Tumour/Heart, mean” value is 0.27. In series [3] (5 min post injection), the “Tumour/Lung, mean” value is listed as 0.22 and the “Tumour/Muscle, mean” value amounted to 1.19. Also, in series [3] (30 min post injection), the “% ID Urinary (urinary excretion), mean” value was found to be 6.89 % ID; the “% ID/g Tumour, mean” value amounted to 0.56 % ID/g; the “Tumour/Blood, mean” value came to 0.59; the “Tumour/Heart, mean” value stood at 0.57. Moreover, in [3] (30 min post injection), the “Tumour/Lung, mean” value is listed as 0.39 and the “Tumour/Muscle, mean” value stood at 1.6. In series [3] (60 min post injection), the “% ID Urinary (urinary excretion), mean” value was determined as 5.5 % ID; the “% ID/g Tumour, mean” value turned out to be 0.48 % ID/g; the “Tumour/Blood, mean” value was determined as 0.46; the “Tumour/Heart, mean” value is 0.68. In [3] (60 min post injection), the “Tumour/Lung, mean” value was determined as 0.37 and the “Tumour/Muscle, mean” value was determined as 1.41. In addition, in [3] (120 min post injection), the “% ID Urinary (urinary excretion), mean” value is 7.22 % ID; the “% ID/g Tumour, mean” value was found to be 0.6 % ID/g; the “Tumour/Blood, mean” value came to 0.66; the “Tumour/Heart, mean” value turned out to be 1.23. In [3] (120 min post injection), the “Tumour/Lung, mean” value amounted to 0.85 and the “Tumour/Muscle, mean” value was 1.87. Also, in series [4] (setting [6]), the “% ID/G Carotid, mean” value is recorded as 2.67 % ID/G; the “Carotid/Blood, mean” value is given as 0.94; the “Carotid/Heart, mean” value was determined as 0.48; the “Carotid/Lung, mean” value was determined as 0.62. In series [4] (setting [7]), the “% ID/G Carotid, mean” value came to 2.00 % ID/G; the “Carotid/Blood, mean” value is listed as 1.97; the “Carotid/Heart, mean” value was found to be 1.03; the “Carotid/Lung, mean” value came to 1.71. In addition, in series [4] (setting [8]), the “% ID/G Carotid, mean” value is given as 0.25 % ID/G; the “Carotid/Blood, mean” value is given as 0.19; the “Carotid/Heart, mean” value came to 0.21; the “Carotid/Lung, mean” value is 0.17. The “Tumour hotspots on imaging” value in series [5] is on record as “seen from 5 to 120 minutes post injection”.

`O=C(CCN(C1(C(=O)NO)CCCC1)S(=O)(=O)c1ccc(Oc2ccc(F)cc2)cc1)NCCc1ccc(O)c(I)c1` [Compound 24]: the Ki on MMP-1 worked out at 4950 nM; at MMP-2, 0.14 nM; on MMP-8, 3.93 nM; at MMP-9, 0.58 nM; at MMP-12, 0.67 nM.

Turning to `NC(=O)[C@H](Cc1ccc(O)c(I)c1)NC(=O)CCOCCOCCOCCOCCOCCOCCOCCOCCOCCOCCOCCNC(=O)CCOCCOCCOCCOCCOCCOCCOCCOCCOCCOCCOCCNC(=O)CCN(C1(C(=O)NO)CCCC1)S(=O)(=O)c1ccc(Oc2ccc(F)cc2)cc1` [Compound 32], the Ki is 330 nM on MMP-1; 0.62 nM on MMP-2; 2.17 nM at MMP-8; 0.37 nM on MMP-9; 0.89 nM on MMP-12.

Regarding `NC(=O)[C@H](Cc1ccc(O)c(I)c1)NC(=O)COCC(=O)NCCOCCOCCOCCNC(=O)[C@H](CCC(=O)O)NC(=O)[C@H](CCC(=O)O)NC(=O)[C@H](CCC(=O)O)NC(=O)[C@H](CCC(=O)O)NC(=O)[C@H](CCC(=O)O)NC(=O)CCN(C1(C(=O)NO)CCCC1)S(=O)(=O)c1ccc(Oc2ccc(F)cc2)cc1` [Compound 38], the figures for the inhibition constant (Ki) at MMP-2, at MMP-9 and at MMP-12 were 1.25 nM, 0.99 nM and 0.05 nM, respectively.

Regarding `NC(=O)[C@H](CCCCNC(=O)CON=Cc1ccc(F)cc1)NC(=O)CCN(C1(C(=O)NO)CCCC1)S(=O)(=O)c1ccc(Oc2ccc(F)cc2)cc1` [Compound 46], the Ki amounted to 172 nM at MMP-1; 1.96 nM at MMP-2; 0.52 nM on MMP-8; 0.44 nM at MMP-9; 0.17 nM at MMP-12.

Turning to `NC(=O)[C@H](CCCCNC(=O)CON=Cc1ccc(F)cc1)NC(=O)CCOCCOCCOCCOCCOCCOCCOCCOCCOCCOCCOCCNC(=O)CCOCCOCCOCCOCCOCCOCCOCCOCCOCCOCCOCCNC(=O)CCN(C1(C(=O)NO)CCCC1)S(=O)(=O)c1ccc(Oc2ccc(F)cc2)cc1` [Compound 48], the Ki on MMP-1 turned out to be 33.3 nM; on MMP-8, 0.5 nM; at MMP-9, 0.2 nM.
